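Assay format: 96-well plates, 48-hour exposure. GI50: concentration for 50% inhibition of growth. TGI marks complete inhibition of growth.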
Key:
Experiment in all cases: NCI-60 cell line screen, 48 h
786-0 renal = tested on: 786-0 renal
A498 renal = tested on: A498 renal
A549 NSCLC = tested on: A549 NSCLC
ACHN renal = tested on: ACHN renal
BT-549 breast = tested on: BT-549 breast
CAKI-1 renal = tested on: CAKI-1 renal
CCRF-CEM leukemia = tested on: CCRF-CEM leukemia
COLO 205 colon = tested on: COLO 205 colon
DU-145 prostate = tested on: DU-145 prostate
EKVX NSCLC = tested on: EKVX NSCLC
HCC-2998 colon = tested on: HCC-2998 colon
HCT-116 colon = tested on: HCT-116 colon
HCT-15 colon = tested on: HCT-15 colon
HL-60(TB) leukemia = tested on: HL-60(TB) leukemia
HOP-62 NSCLC = tested on: HOP-62 NSCLC
HOP-92 NSCLC = tested on: HOP-92 NSCLC
HS 578T breast = tested on: HS 578T breast
HT29 colon = tested on: HT29 colon
IGROV1 ovarian = tested on: IGROV1 ovarian
K-562 leukemia = tested on: K-562 leukemia
KM12 colon = tested on: KM12 colon
LOX IMVI melanoma = tested on: LOX IMVI melanoma
M14 melanoma = tested on: M14 melanoma
MALME-3M melanoma = tested on: MALME-3M melanoma
MCF7 breast = tested on: MCF7 breast
MDA-MB-231 breast = tested on: MDA-MB-231 breast
MDA-MB-435 = tested on: MDA-MB-435
MOLT-4 leukemia = tested on: MOLT-4 leukemia
NCI-H226 lung = tested on: NCI-H226 lung
NCI-H23 lung = tested on: NCI-H23 lung
NCI-H460 lung = tested on: NCI-H460 lung
NCI-H522 lung = tested on: NCI-H522 lung
NCI/ADR-RES ovarian = tested on: NCI/ADR-RES ovarian
OVCAR-3 ovarian = tested on: OVCAR-3 ovarian
OVCAR-4 ovarian = tested on: OVCAR-4 ovarian
OVCAR-5 ovarian = tested on: OVCAR-5 ovarian
OVCAR-8 ovarian = tested on: OVCAR-8 ovarian
PC-3 prostate = tested on: PC-3 prostate
RPMI-8226 leukemia = tested on: RPMI-8226 leukemia
RXF 393 renal = tested on: RXF 393 renal
SF-268 CNS = tested on: SF-268 CNS
SF-295 CNS = tested on: SF-295 CNS
SF-539 CNS = tested on: SF-539 CNS
SK-MEL-2 melanoma = tested on: SK-MEL-2 melanoma
SK-MEL-28 melanoma = tested on: SK-MEL-28 melanoma
SK-MEL-5 melanoma = tested on: SK-MEL-5 melanoma
SK-OV-3 ovarian = tested on: SK-OV-3 ovarian
SN12C renal = tested on: SN12C renal
SNB-19 CNS = tested on: SNB-19 CNS
SNB-75 CNS = tested on: SNB-75 CNS
SR leukemia = tested on: SR leukemia
SW-620 colon = tested on: SW-620 colon
T-47D breast = tested on: T-47D breast
TK-10 renal = tested on: TK-10 renal
U251 CNS = tested on: U251 CNS
UACC-257 melanoma = tested on: UACC-257 melanoma
UACC-62 melanoma = tested on: UACC-62 melanoma
UO-31 renal = tested on: UO-31 renal

`N#C/C(=C\c1cn(Cc2ccccc2)c2ccccc12)C(=O)Nc1ncc(Cc2ccccc2Cl)s1` gave a GI50 (786-0 renal) of 1510 nM, a TGI (786-0 renal) of 3110 nM and a GI50 (A498 renal) of 1080 nM. The TGI (A498 renal) was 2870 nM, the GI50 (A549 NSCLC) was 1790 nM and the TGI (A549 NSCLC) was 6020 nM. For the same molecule, the GI50 (ACHN renal) was 823 nM, the TGI (ACHN renal) was 2140 nM and the GI50 (BT-549 breast) was 2940 nM. The TGI (BT-549 breast) was 11600 nM, the GI50 (CAKI-1 renal) was 1430 nM and the TGI (CAKI-1 renal) was 3750 nM. It also gave a GI50 (CCRF-CEM leukemia) of 2510 nM, a TGI (CCRF-CEM leukemia) of over 100000 nM and a GI50 (COLO 205 colon) of 1140 nM. It also gave a TGI (COLO 205 colon) of 2810 nM, a GI50 (DU-145 prostate) of 2750 nM and a TGI (DU-145 prostate) of over 100000 nM. It also gave a GI50 (EKVX NSCLC) of 2820 nM, a TGI (EKVX NSCLC) of 12700 nM and a GI50 (HCC-2998 colon) of 3230 nM. For the same molecule, the TGI (HCC-2998 colon) was over 100000 nM, the GI50 (HCT-116 colon) was 1270 nM and the TGI (HCT-116 colon) was 3890 nM. It also gave a GI50 (HCT-15 colon) of 2830 nM, a TGI (HCT-15 colon) of over 100000 nM and a GI50 (HL-60(TB) leukemia) of over 100000 nM. It also gave a TGI (HL-60(TB) leukemia) of over 100000 nM, a GI50 (HOP-62 NSCLC) of 2520 nM and a TGI (HOP-62 NSCLC) of 10400 nM. The GI50 (HOP-92 NSCLC) was 1880 nM, the TGI (HOP-92 NSCLC) was 6000 nM and the GI50 (HS 578T breast) was 1930 nM. The TGI (HS 578T breast) was 7080 nM, the GI50 (HT29 colon) was 2660 nM and the TGI (HT29 colon) was over 100000 nM. For the same molecule, the GI50 (IGROV1 ovarian) was 1930 nM, the TGI (IGROV1 ovarian) was 5570 nM and the GI50 (K-562 leukemia) was 3030 nM. For the same molecule, the TGI (K-562 leukemia) was over 100000 nM, the GI50 (KM12 colon) was 1890 nM and the TGI (KM12 colon) was 6620 nM. It also gave a GI50 (LOX IMVI melanoma) of 4610 nM, a TGI (LOX IMVI melanoma) of 48800 nM and a GI50 (M14 melanoma) of 2520 nM. For the same molecule, the TGI (M14 melanoma) was 10400 nM, the GI50 (MALME-3M melanoma) was 1780 nM and the TGI (MALME-3M melanoma) was 4140 nM. The GI50 (MCF7 breast) was 3010 nM, the TGI (MCF7 breast) was over 100000 nM and the GI50 (MDA-MB-231 breast) was 1930 nM. The TGI (MDA-MB-231 breast) was 4790 nM, the GI50 (MDA-MB-435) was 1790 nM and the TGI (MDA-MB-435) was 4720 nM. The GI50 (MOLT-4 leukemia) was 2490 nM, the TGI (MOLT-4 leukemia) was over 100000 nM and the GI50 (NCI-H226 lung) was 1700 nM. The TGI (NCI-H226 lung) was 5670 nM, the GI50 (NCI-H23 lung) was 1710 nM and the TGI (NCI-H23 lung) was 4080 nM. For the same molecule, the GI50 (NCI-H460 lung) was 530 nM, the TGI (NCI-H460 lung) was 1990 nM and the GI50 (NCI-H522 lung) was 1800 nM. For the same molecule, the TGI (NCI-H522 lung) was 6360 nM, the GI50 (NCI/ADR-RES ovarian) was 2680 nM and the TGI (NCI/ADR-RES ovarian) was 13300 nM. It also gave a GI50 (OVCAR-3 ovarian) of 1560 nM, a TGI (OVCAR-3 ovarian) of 3620 nM and a GI50 (OVCAR-4 ovarian) of 393 nM. It also gave a TGI (OVCAR-4 ovarian) of 1610 nM, a GI50 (OVCAR-5 ovarian) of 1700 nM and a TGI (OVCAR-5 ovarian) of 4590 nM. The GI50 (OVCAR-8 ovarian) was 1350 nM, the TGI (OVCAR-8 ovarian) was 3130 nM and the GI50 (PC-3 prostate) was 2010 nM. The TGI (PC-3 prostate) was 7480 nM, the GI50 (RPMI-8226 leukemia) was 3230 nM and the TGI (RPMI-8226 leukemia) was over 100000 nM. It also gave a GI50 (RXF 393 renal) of 2270 nM, a TGI (RXF 393 renal) of 6140 nM and a GI50 (SF-268 CNS) of 2790 nM. For the same molecule, the TGI (SF-268 CNS) was 23400 nM, the GI50 (SF-295 CNS) was 2360 nM and the TGI (SF-295 CNS) was 6870 nM. The GI50 (SF-539 CNS) was 1680 nM, the TGI (SF-539 CNS) was 3420 nM and the GI50 (SK-MEL-2 melanoma) was 2050 nM. For the same molecule, the TGI (SK-MEL-2 melanoma) was 4850 nM, the GI50 (SK-MEL-28 melanoma) was 2360 nM and the TGI (SK-MEL-28 melanoma) was 6740 nM. It also gave a GI50 (SK-MEL-5 melanoma) of 2620 nM, a TGI (SK-MEL-5 melanoma) of 7080 nM and a GI50 (SK-OV-3 ovarian) of 1800 nM. For the same molecule, the TGI (SK-OV-3 ovarian) was 4660 nM, the GI50 (SN12C renal) was 1570 nM and the TGI (SN12C renal) was 3880 nM. For the same molecule, the GI50 (SNB-19 CNS) was 3070 nM, the TGI (SNB-19 CNS) was 17800 nM and the GI50 (SNB-75 CNS) was 1500 nM. For the same molecule, the TGI (SNB-75 CNS) was 4540 nM, the GI50 (SR leukemia) was 1110 nM and the TGI (SR leukemia) was 3580 nM. It also gave a GI50 (SW-620 colon) of 1520 nM, a TGI (SW-620 colon) of 4200 nM and a GI50 (T-47D breast) of 1690 nM. It also gave a TGI (T-47D breast) of 4150 nM, a GI50 (TK-10 renal) of 1930 nM and a TGI (TK-10 renal) of 4200 nM. For the same molecule, the GI50 (U251 CNS) was 1360 nM, the TGI (U251 CNS) was 2920 nM and the GI50 (UACC-257 melanoma) was 3300 nM. For the same molecule, the TGI (UACC-257 melanoma) was over 100000 nM, the GI50 (UACC-62 melanoma) was 1520 nM and the TGI (UACC-62 melanoma) was 3160 nM. It also gave a GI50 (UO-31 renal) of 1460 nM and a TGI (UO-31 renal) of 3180 nM.

Reference: PubChem BioAssay (NCI)
